Measurements: the CheMixHub viscosity set
± gives the uncertainty stated by the source.

Assay: xn = mol fraction of the nth substance listed

C=CC(=O)OC + CCOCCOCCO
viscosity [mPa·s], 101 kPa
Settings	293.15 K	298.15 K	303.15 K	308.15 K	313.15 K	318.15 K
x2 = 0.0702	0.594 ± 0.07	0.558 ± 0.07	0.5 ± 0.07	0.469 ± 0.07	0.447 ± 0.07	0.428 ± 0.07
x2 = 0.1404	0.695 ± 0.07	0.65 ± 0.07	0.607 ± 0.07	0.572 ± 0.07	0.539 ± 0.07	0.507 ± 0.07
x2 = 0.2131	0.826 ± 0.07	0.767 ± 0.07	0.715 ± 0.07	0.671 ± 0.07	0.624 ± 0.07	0.589 ± 0.07
x2 = 0.2822	0.95 ± 0.071	0.877 ± 0.07	0.813 ± 0.07	0.756 ± 0.07	0.705 ± 0.07	0.659 ± 0.07
x2 = 0.3597	1.133 ± 0.071	1.038 ± 0.071	0.955 ± 0.071	0.884 ± 0.07	0.82 ± 0.07	0.762 ± 0.07
x2 = 0.4297	1.346 ± 0.071	1.226 ± 0.071	1.109 ± 0.071	1.019 ± 0.071	0.941 ± 0.07	0.872 ± 0.07
x2 = 0.5002	1.574 ± 0.071	1.428 ± 0.071	1.288 ± 0.071	1.171 ± 0.071	1.076 ± 0.071	0.992 ± 0.071
x2 = 0.5703	1.835 ± 0.072	1.648 ± 0.072	1.479 ± 0.071	1.355 ± 0.071	1.236 ± 0.071	1.125 ± 0.071
x2 = 0.6412	2.109 ± 0.072	1.904 ± 0.072	1.715 ± 0.072	1.547 ± 0.071	1.405 ± 0.071	1.286 ± 0.071
x2 = 0.7172	2.478 ± 0.073	2.199 ± 0.073	1.976 ± 0.072	1.782 ± 0.072	1.605 ± 0.071	1.457 ± 0.071
x2 = 0.7906	2.868 ± 0.074	2.529 ± 0.073	2.247 ± 0.073	2.017 ± 0.072	1.819 ± 0.072	1.656 ± 0.072
x2 = 0.8598	3.295 ± 0.076	2.893 ± 0.075	2.534 ± 0.073	2.279 ± 0.073	2.031 ± 0.072	1.836 ± 0.072
x2 = 0.9184	3.692 ± 0.077	3.212 ± 0.076	2.788 ± 0.074	2.508 ± 0.073	2.226 ± 0.073	2.016 ± 0.072

CN(C)CCO + CC(=O)c1ccccc1
viscosity [mPa·s], 101.3 kPa
Settings	x2 = 0.0879	x2 = 0.1782	x2 = 0.2709	x2 = 0.3663	x2 = 0.4644	x2 = 0.5654	x2 = 0.6693	x2 = 0.7762	x2 = 0.8864
303.15 K	2.331 ± 0.47	2.243 ± 0.45	2.155 ± 0.43	2.067 ± 0.41	1.98 ± 0.4	1.892 ± 0.38	1.804 ± 0.36	1.716 ± 0.34	1.628 ± 0.33
313.15 K	1.952 ± 0.39	1.882 ± 0.38	1.811 ± 0.36	1.741 ± 0.35	1.67 ± 0.33	1.6 ± 0.32	1.529 ± 0.31	1.459 ± 0.29	1.388 ± 0.28
323.15 K	1.689 ± 0.34	1.644 ± 0.33	1.6 ± 0.32	1.555 ± 0.31	1.51 ± 0.3	1.465 ± 0.29	1.42 ± 0.28	1.375 ± 0.28	1.33 ± 0.27

C=CC(=O)OC + CCCCCCO
viscosity [mPa·s], 101.33 kPa
Settings	308.15 K	318.15 K
x1 = 0.0466	2.892 ± 0.016	2.186 ± 0.013
x1 = 0.149	2.128 ± 0.013	1.687 ± 0.01
x1 = 0.2479	1.616 ± 0.01	1.331 ± 0.008
x1 = 0.3487	1.247 ± 0.008	1.059 ± 0.007
x1 = 0.4466	0.989 ± 0.007	0.859 ± 0.006
x1 = 0.4989	0.881 ± 0.006	0.772 ± 0.006
x1 = 0.5479	0.795 ± 0.006	0.701 ± 0.005
x1 = 0.6418	0.662 ± 0.005	0.588 ± 0.005
x1 = 0.7501	0.549 ± 0.004	0.486 ± 0.004
x1 = 0.8501	0.472 ± 0.004	0.414 ± 0.004
x1 = 0.9438	0.417 ± 0.004	0.36 ± 0.003

O=C1OCCO1 + O
298.15 K, 101 kPa
Settings	viscosity [mPa·s]
x1 = 0.0166	0.955 ± 0.009
x1 = 0.0221	0.968 ± 0.01
x1 = 0.0415	1.038 ± 0.01
x1 = 0.0635	1.096 ± 0.011
x1 = 0.0897	1.172 ± 0.011
x1 = 0.1194	1.253 ± 0.012
x1 = 0.1403	1.309 ± 0.013
x1 = 0.1625	1.377 ± 0.013
x1 = 0.2345	1.519 ± 0.015
x1 = 0.3229	1.647 ± 0.016
x1 = 0.3784	1.704 ± 0.017
x1 = 0.4412	1.751 ± 0.017
x1 = 0.5409	1.831 ± 0.018
x1 = 0.6443	1.898 ± 0.019

CC(C)(C)c1ccccc1 + CC(C)c1ccccc1
303.15 K, 101.3 kPa
Settings	viscosity [mPa·s]
x2 = 0.039	0.9864 ± 0.008
x2 = 0.1371	0.9507 ± 0.0077
x2 = 0.2661	0.9067 ± 0.0074
x2 = 0.4247	0.8551 ± 0.007
x2 = 0.4906	0.8347 ± 0.0068
x2 = 0.6105	0.7984 ± 0.0065
x2 = 0.7457	0.7572 ± 0.0062
x2 = 0.8708	0.7224 ± 0.006
x2 = 0.9592	0.6981 ± 0.0058

ClCC(Cl)Cl + COc1ccccc1N
viscosity [mPa·s], 100 kPa
Settings	x2 = 0.0884	x2 = 0.1905	x2 = 0.2923	x2 = 0.4076	x2 = 0.5076	x2 = 0.5945	x2 = 0.7016	x2 = 0.8104	x2 = 0.9023
303.15 K	1.376 ± 0.043	1.786 ± 0.056	2.192 ± 0.068	2.647 ± 0.082	3.038 ± 0.094	3.376 ± 0.11	3.789 ± 0.12	4.204 ± 0.13	4.554 ± 0.14
308.15 K	1.291 ± 0.041	1.676 ± 0.052	2.055 ± 0.064	2.478 ± 0.077	2.841 ± 0.088	3.154 ± 0.098	3.535 ± 0.11	3.918 ± 0.12	4.236 ± 0.13
313.15 K	1.204 ± 0.038	1.566 ± 0.049	1.916 ± 0.06	2.307 ± 0.072	2.641 ± 0.082	2.929 ± 0.091	3.279 ± 0.1	3.629 ± 0.11	3.918 ± 0.12
